Molecular target: T1, fused G6PD::6PGL protein (Giardia duodenalis, UniProt A8BWM5)
T1 construct: gene GL50803_008682; natural fusion of G6PD and 6PGL domains in one open reading frame; pET-3a/g6pd::6pgl in E. coli BL21(DE3)Δzwf::kan^r; 2',5'-ADP Sepharose and Sephacryl 200; dimer
T1 sequence (A8BWM5 1-742): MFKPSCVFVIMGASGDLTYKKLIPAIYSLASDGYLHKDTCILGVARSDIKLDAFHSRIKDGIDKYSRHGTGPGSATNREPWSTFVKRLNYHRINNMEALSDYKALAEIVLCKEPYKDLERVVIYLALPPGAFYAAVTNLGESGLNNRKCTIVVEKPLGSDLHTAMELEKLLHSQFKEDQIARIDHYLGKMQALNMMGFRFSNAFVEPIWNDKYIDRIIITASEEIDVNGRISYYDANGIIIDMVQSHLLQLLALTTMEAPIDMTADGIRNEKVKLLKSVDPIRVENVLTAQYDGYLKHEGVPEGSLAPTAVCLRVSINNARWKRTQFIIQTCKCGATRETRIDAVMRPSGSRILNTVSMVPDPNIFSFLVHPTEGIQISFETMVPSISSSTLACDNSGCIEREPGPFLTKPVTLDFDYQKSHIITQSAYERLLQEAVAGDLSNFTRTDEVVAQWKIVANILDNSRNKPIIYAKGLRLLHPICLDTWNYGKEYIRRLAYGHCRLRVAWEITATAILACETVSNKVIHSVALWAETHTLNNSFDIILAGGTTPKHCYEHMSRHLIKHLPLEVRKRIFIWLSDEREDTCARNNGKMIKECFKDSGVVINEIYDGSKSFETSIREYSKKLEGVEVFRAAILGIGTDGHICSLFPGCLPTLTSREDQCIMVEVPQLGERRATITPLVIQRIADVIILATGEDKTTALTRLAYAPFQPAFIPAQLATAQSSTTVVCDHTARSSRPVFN
Assay: intrinsic tryptophan fluorescence quenching titration
Format: binding

Question: How did the Kd turn out when NC(=O)c1ccc[n+]([C@@H]2O[C@H](COP(=O)(O)OP(=O)(O)OC[C@H]3O[C@@H](n4cnc5c(N)ncnc54)[C@H](OP(=O)(O)O)[C@@H]3O)[C@@H](O)[C@H]2O)c1 [NADP^+] was run?
Answer: Its Kd is 63.2 nM.

From PMC7022596, “Identification of the NADP^+ Structural Binding Site and Coenzyme Effect on the Fused G6PD::6PGL Protein from Giardia lamblia” (Biomolecules, 2019)
